From US9797015B2, “Genetic variants associated with lithium response in bipolar disorder” (Academia Sinica, priority 2013, dated 2017)
Where “and” joins values, the source holds several entries; their conditions need not be identical. Identical values can stand only once.

Legend:
Type in all cases: in vivo, human
[1] = tested on: bipolar I (BPI) disorder patients; assay: Response to long-term lithium prophylaxis treatment, Alda Scale (retrospective, life chart; GWAS and replication groups)
Source text: We carried out a “discovery” GWAS, and two tests of replication. […] We genotyped each of the 1647 patients by array (see below).
To assess response to long-term lithium prophylaxis treatment in BPI disorder, we prepared a life chart with graphic depiction of lifetime clinical course for each of the BPI patients recruited before June 2012 (N=1761). […] We depicted this information graphically, based on integrated information gathered from direct interview with patients and their family members, interviews with in-charge psychiatrists, and a thorough medical chart review.
The phenotype of lithium response was assessed based on the life chart, using the Retrospective Criteria of Long-Term Treatment Response in Research Subjects with Bipolar Disorder developed by Martin Alda and Colleagues (Alda Scale). The Alda scale has two criteria. […] Criterion B (B1-B5, each rated as 0, 1 or 2 points) is used to establish whether there is a causal relationship between clinical improvement and the treatment. B1 and B2 indicate the recurrence risk off the lithium treatment [number (B1) and frequency (B2) of episodes]. B3 is a measure of the length of lithium treatment. B4 indicates compliance with lithium. B5 is a measure of concomitant psychotropic medication during periods of stability. The total score is obtained by subtracting the sum of the B scores from the A score.
In investigating a causal relationship between lithium treatment and clinical improvement of individual patients, it is important to ensure (i) comparability in clinical course between on-lithium and off-lithium periods (number, frequency and severity of episodes); (ii) satisfactory drug compliance, and (iii) the minimization of influence from additional medications (hypnotics, antidepressants, antipsychotics, and other mood stabilizers). We determined inclusion criteria accordingly, to minimize the misclassification of responders and non-responders.
See, e.g., Grof et al., J Clin Psychiatry 2002; 63:942-7; and Squassina et al, Pharmacogenomics 2011; 12:1559-69.

[2] = tested on: bipolar I (BPI) disorder patients; assay: Follow-up study (second test of replication) of 24 patients on lithium monotherapy, Alda Scale; set-up: key to A − B (total score of Alda Scale): Alda total = A score minus sum of B1-B5 scores (each 0-2); settings: for A − B (total score of Alda Scale): individual patients, follow-up 2-5 yrs
Source text: In a second test of replication, we genotyped an independent series of 24 patients who had received lithium monotherapy for at least 2 years, through May 2012. We based their inclusion on a life chart (see Phenotype Definition and Assessment below) constructed for all patients in the 1647-patient sample. Each of these 24 patients had good drug adherence to mood stabilizer(s) other than lithium prior to their commencement of lithium monotherapy but with unsatisfactory response.
The phenotype of lithium response was assessed based on the life chart, using the Retrospective Criteria of Long-Term Treatment Response in Research Subjects with Bipolar Disorder developed by Martin Alda and Colleagues (Alda Scale). The Alda scale has two criteria. Criterion A measures the extent of clinical improvement in illness activity and takes into account the frequency, duration, and severity of episodes during periods of lithium treatment considered adequate in duration and dosage, compared with the frequency, duration, and severity of episodes during periods off the lithium treatment, on a scale from 0 (no change, or exacerbation of disease severity) to 10 (complete remission). Criterion B (B1-B5, each rated as 0, 1 or 2 points) is used to establish whether there is a causal relationship between clinical improvement and the treatment. B1 and B2 indicate the recurrence risk off the lithium treatment [number (B1) and frequency (B2) of episodes]. B3 is a measure of the length of lithium treatment. B4 indicates compliance with lithium. B5 is a measure of concomitant psychotropic medication during periods of stability. The total score is obtained by subtracting the sum of the B scores from the A score.
(§1) For patients in the second test of replication, we carried out regular follow-up evaluations (usually monthly and at least once every 3 months), including assay of lithium to assess drug adherence, and a SCAN interview to assess clinical condition, at outpatient clinics for at least 2 years.

[3] = Reported lithium blood levels during prophylaxis therapy; settings: study patients with good adherence to lithium prophylaxis therapy
Source text: To assess response to long-term lithium prophylaxis treatment in BPI disorder, we prepared a life chart with graphic depiction of lifetime clinical course for each of the BPI patients recruited before June 2012 (N=1761). This life chart included all manic, hypomanic, and depressive episodes with date of onset (year and month), duration, and severity (including the extent of functional disability, hospitalization, and the presence of psychotic features), all doses of and duration of treatment with psychotropics and mood stabilizers known have been prescribed, drug adherence recorded in medical chart for all visits at outpatient clinics, all recorded blood levels of mood stabilizers, and any adverse drug reactions. We depicted this information graphically, based on integrated information gathered from direct interview with patients and their family members, interviews with in-charge psychiatrists, and a thorough medical chart review. Based on this life chart, we determined whether individual patients had good drug adherence.
as §1

[4] = 394 bipolar I patients under lithium prophylaxis, B5 = 2 (prolonged antidepressant and/or antipsychotic and/or mood stabilizer)

[Li] [lithium]
Good response to treatment (A − B ≧ 6) ([1]; 394 bipolar I patients under lithium prophylaxis, B5 = 1 (low dose antidepressants and/or antipsychotics and/or prolonged sleep medication)): 124 (50.4) N(%)
Good response to treatment (A − B ≧ 6) [1, 4]: 5 (5.0) N(%)
Poor response to treatment (A − B < 6) [1, 4]: 96 (95.0) N(%)
Good response to treatment (A − B ≧ 6) ([1]; 394 bipolar I patients under lithium prophylaxis, additional medication B5 = 0 (none except infrequent sleep medication)): 30 (63.8) N(%)
Poor responders to treatment at cutoff 5/6 ([1]; study subjects with a B5 score of 2): 95.0%
total Alda score, range ([2]; carriers of the response alleles (N=16), good response): 8-10
A − B (total score of Alda Scale) ([2]; rs17026688 genotype CC): 3 (3×) and 2 (2×) and 0 (3×)
A − B (total score of Alda Scale) ([2]; rs17026688 genotype CT): 10 (5×) and 9 (6×) and 8
A − B (total score of Alda Scale) ([2]; rs17026688 genotype TT): 9
total Alda score, range ([2]; non-carriers (N=8), poor response): 0-3
lithium blood levels [3]: ≥ 0.5 mM
